Read-outs that look alike come from different tables or passages of the source. Each block holds one molecule with its values, some of them ahead of it.
How the values were obtained:
[1] = parameters: method as in PMID 11060779; details: cited from earlier work
Dogs = tested on: Dogs; parameters: method as in PMID 8053022, PMID 8053028, PMID 7943542; details: for 4 weeks; cited from earlier work
[2] = parameters: method as in Teja-Isavadharm et al. (1996); details: after oral administration compared with i.m. injection of ARM in an oil-based vehicle; ref Teja-Isavadharm et al. (1996); cited from earlier work
beagle dogs [3] = assay: Ultra-structural examination of liver, kidney and heart by transmission electron microscopy; format: in vivo, dog; details: weeks 4, 8 and 13; TEM
Experimental: (§1) The first day of treatment was regarded as day one in the study. […] Oral administration was performed about 2 h after feeding. ARM was administered by a bolus intramuscular infusion through a 25-gauge needle at a constant volume of 2 ml kg^−1 once a day into the gluteal and infraspinous muscles. Two dogs of each sex from each group were allowed to recover without further treatment for an additional 4 weeks.
Termination of treatment was scheduled to occur on weeks 4, 8 (two interim necropsies) and 13, followed by a 4-week recovery period. For pathological examinations, the animals were euthanized within 24 h of the final drug administration with sodium pentobarbital, followed by exsanguination via the femoral artery. A gross necropsy was performed, including a thorough visual examination of all the internal organs. Weights were obtained for the brain, heart, liver, spleen, lung, kidneys, adrenals, thyroid/parathyroids, thymus, pancreas and ovaries/testes/prostate, and organ-to-body weight ratios were calculated. For each animal, representative samples from approximately 48 organs and tissues were taken and fixed in neutral buffered 10% formalin, except for the sternum, which was retained in Helly’s fixative (1000 ml distilled water, 25 g potassium dichromate, 10 g sodium sulfate, 50 g mercuric chloride, 50 ml 40% formaldehyde). […]

beagle dogs [4] = assay: Clinical chemistry in the 13-week repeated-dose dog study; format: in vivo
Experimental: as §1
(§2) Blood samples were collected from the femoral vein of each dog prior to treatment and every 2 weeks after the first day of treatment. Hematology parameters were measured using an automated hematology analyzer (Sysmex, XT-2000iv, Toa Medical Electronics Co. Ltd., Kobe, Japan) using standard methods. Test parameters included hemoglobin (Hb) levels, the hematocrit (Hct) fraction, erythrocyte (RBC) count, leukocyte (WBC) count, neutrophilic granulocyte fraction (NE%), monocyte fraction (MO%), lymphocyte levels (LY%), platelet count (PLT), reticulocyte count (RET%) and RBC morphology. The following clinical chemistry parameters were measured using a Hitachi-7180 Chemistry Analyzer (High-Technologies Corporation, Tokyo, Japan) and standard methods: glucose, blood urea nitrogen, inorganic phosphorus, creatinine, total protein, albumin, calcium, aspartate aminotransferase (AST), alanine aminotransferase, alkaline phosphatase, total bilirubin, creatine kinase (CK), sodium, potassium and chloride.

beagle dogs [5] = assay: Pathologic (histopathological) examination of organs, brain and cardiac conduction system; format: in vivo, dog
Experimental: as §1
Termination of treatment was scheduled to occur on weeks 4, 8 (two interim necropsies) and 13, followed by a 4-week recovery period. For pathological examinations, the animals were euthanized within 24 h of the final drug administration with sodium pentobarbital, followed by exsanguination via the femoral artery. A gross necropsy was performed, including a thorough visual examination of all the internal organs. Weights were obtained for the brain, heart, liver, spleen, lung, kidneys, adrenals, thyroid/parathyroids, thymus, pancreas and ovaries/testes/prostate, and organ-to-body weight ratios were calculated. For each animal, representative samples from approximately 48 organs and tissues were taken and fixed in neutral buffered 10% formalin, except for the sternum, which was retained in Helly’s fixative (1000 ml distilled water, 25 g potassium dichromate, 10 g sodium sulfate, 50 g mercuric chloride, 50 ml 40% formaldehyde). Histopathological sections of all samples were prepared by embedding in paraffin wax, multiple-sectioning and staining with hematoxylin and eosin (HE). Samples of the left ventricular myocardium, right lateral hepatic lobe and right kidney from two animals of each sex from each group were fixed immediately after exsanguination in 2.5% glutaraldehyde, post-fixed in 1.0% osmium tetroxide, and embedded in plastic. Ultrathin liver, kidney and heart sections were examined with a Hitachi H-600 transmission electron microscope (TEM). All other tissues were examined by light microscopy.
After removal, the cardiac conduction system, including the sinoatrial node (SAN) and atrioventricular node (AVN), were selected by the Palate method. The brain was sectioned at multiple transverse levels to obtain susceptible brain regions. To improve the definition of the brain lesions, toluidine stains were applied on selected duplicate sections, and all preparations were examined under a light microscope. For pathologic examinations, degenerative neurons were evaluated on three randomly selected brain sections. The adjacent fields of neurons in each selected section were counted using a microscope at a magnification of 200×. […] The severity of the neuropathological lesions was defined as follows: the total number of neuropathological lesions per section area yielded a severity score from 0 to 4, where 0 = unaffected, 1 = minimally affected neurons with one degenerative cell per section, 2 = two degenerative cells per section, 3 = three degenerative cells per section and 4 = multiple degenerative areas per section.

beagle dogs [6] = assay: Electrocardiography in the 13-week repeated-dose dog study; format: in vivo; details: 6 mg kg^-1 per day p.o.; weeks 3 and 5 in males, weeks 5–9 in females (p<0.01), late stages (p<0.05)
Experimental: as §1
Electrocardiograms were recorded using an Auto Electrocardiogram (ECG-9130P, Nihon Kohden Corporation, Japan). Recordings were taken from each dog, while conscious, every 2 weeks from week-1. Leads I, II, III, aVR, aVL and aVF were utilized. The electrocardiography (ECG) parameters included heart rate, PR, QRS and QT interval, and QRS and T wave amplitudes. As the PQ and QT intervals vary with heart rate, they were adjusted to an RR-interval of 500 ms, corresponding to a heart rate of 120 bpm using the following equation: QT500 = QT – 0.084×(RR – 500).

[7] = Toxicokinetic analysis of plasma drug levels (HPLC); format: in vivo, dog; details: both sexes, beagle, dog, plasma, other: ART p.o., ARM i.m., 6 mg/kg, ARM i.m.; for AUC: 6 mg kg^−1 daily, ART p.o., dog plasma
Experimental: as §1
For toxicokinetic analysis, blood samples were collected on weeks 1, 2, 4, 8 and 13 at 0 (before dosing), 0.5, 1, 2, 4, 8, 12 and 24 h after dosing. Approximately 1 ml blood was drawn from the antebrachial, cephalic or jugular vein of three animals of each sex per time point and deposited into heparinized tubes for immediate centrifugation at 3000 rpm at 4°C for 10 min. The plasma was then immediately transferred to 2 ml polypropylene tubes and stored on dry ice. Samples were stored at −80°C until HPLC analysis.

beagle dogs [8] = assay: Hematology in the 13-week repeated-dose dog study; format: in vivo
Experimental: as §1, §2
The differential granulocytic and erythrocytic series (erythroid, myeloid blast cell count and the red ratio) were determined manually from blood smears.

[9] = Week 13, females, 6 mg kg^-1 per day
[10] = Week 4, 6 mg kg^-1 per day (ART p.o., ARM i.m.)
[11] = Week 8, 6 mg kg^-1 per day (ART p.o., ARM i.m.)
[12] = Week 13, 6 mg kg^-1 per day (ART p.o., ARM i.m.)
[13] = Week 17 (after 4-week recovery)
[14] = both treated groups, no significant differences
[15] = week 2 until week 10 post-treatment, vs control groups (p<0.05)

Structure (SMILES): CCO[C@H]1O[C@@H]2O[C@@]3(C)CC[C@H]4[C@H](C)CC[C@@H]([C@H]1C)[C@@]24OO3 [ARE, arteether]
solubility character [1]: fat soluble
calculated average minimal daily dose necessary to produce toxicity observable by histopathology (Dogs): 6 mg kg^−1

Structure (SMILES): C[C@H]1[C@@H](O)O[C@@H]2O[C@@]3(C)CC[C@H]4[C@H](C)CC[C@@H]1[C@@]24OO3 [DHA, dihydroartemisinin]
decline of plasma concentrations [2]: declined much faster after oral administration

Clinical chemistry (overall) (beagle dogs [4]; Week 8, 6 mg kg^-1 per day): - (“-” = No effect)
Clinical chemistry: Alb(F) (beagle dogs [4]; [9]): ↓TP(F), ↓Alb(F)
Clinical chemistry: TP(F) (beagle dogs [4]; [9]): ↓TP(F), ↓Alb(F)
serum albumin levels (beagle dogs [4]; weeks 10 and 12): significant decrease
Hematology: Hb (beagle dogs [8]; Week 4, 6 mg kg^-1 per day): ↓Hct, ↓Hb
Hematology: Hct (beagle dogs [8]; Week 4, 6 mg kg^-1 per day): ↓Hct, ↓Hb
Hematology: Hb (beagle dogs [8]; Week 8, 6 mg kg^-1 per day): ↓Hct, ↓Hb, ↓MCV
Hematology: Hct (beagle dogs [8]; Week 8, 6 mg kg^-1 per day): ↓Hct, ↓Hb, ↓MCV
Hematology: MCV (beagle dogs [8]; Week 8, 6 mg kg^-1 per day): ↓Hct, ↓Hb, ↓MCV
Hematology: Hb (beagle dogs [8]; Week 13, 6 mg kg^-1 per day): ↓Hct, ↓Hb
Hematology: Hct (beagle dogs [8]; Week 13, 6 mg kg^-1 per day): ↓Hct, ↓Hb
MO% (beagle dogs [8]; males and females, after weeks 2 and 4 (p<0.05)): significant increases
Hb levels (beagle dogs [8]; week 2): corresponding decrease
RBC counts (beagle dogs [8]; week 2): decrease
LY% (beagle dogs [8]; [15]): decreased
NE% (beagle dogs [8]; [15]): significantly increased
WBC count (beagle dogs [8]; [15]): significantly increased
Structure (SMILES): C[C@H]1[C@H](OC(=O)CCC(=O)O)O[C@@H]2O[C@@]3(C)CC[C@H]4[C@H](C)CC[C@@H]1[C@@]24OO3 [ART, artesunate]
ultra-structural findings in hepatocytes, myocardial cells and proximal tubules in the kidney (beagle dogs [3]): Mitochondrial bending and distortion and swollen vacuoles
solubility character [1]: water soluble
neurotoxicity (beagle dogs [5]; 6 mg kg^-1 per day p.o. for 13 weeks): not observed
Cardiac conduction system foci (dogs affected/examined) (beagle dogs [5]; [10]): 0
Extramedullary hematopoiesis (dogs affected/examined) (beagle dogs [5]; [10]): 3/4
Hepatocyte necrosis (dogs affected/examined) (beagle dogs [5]; [10]): 0
Inhibition of erythropoiesis (dogs affected/examined) (beagle dogs [5]; [10]): 2/4
Neuronal necrosis (dogs affected/examined) (beagle dogs [5]; [10]): 0
Tubular cell degeneration (dogs affected/examined) (beagle dogs [5]; [10]): 2/4
Cardiac conduction system foci (dogs affected/examined) (beagle dogs [5]; [11]): 1/4
Extramedullary hematopoiesis (dogs affected/examined) (beagle dogs [5]; [11]): 1/4
Hepatocyte necrosis (dogs affected/examined) (beagle dogs [5]; [11]): 0
Inhibition of erythropoiesis (dogs affected/examined) (beagle dogs [5]; [11]): 0
Neuronal necrosis (dogs affected/examined) (beagle dogs [5]; [11]): 0
Tubular cell degeneration (dogs affected/examined) (beagle dogs [5]; [11]): 3/4
Cardiac conduction system foci (dogs affected/examined) (beagle dogs [5]; [12]): 2/4
Extramedullary hematopoiesis (dogs affected/examined) (beagle dogs [5]; [12]): 0
Hepatocyte necrosis (dogs affected/examined) (beagle dogs [5]; [12]): 0
Inhibition of erythropoiesis (dogs affected/examined) (beagle dogs [5]; [12]): 0
Neuronal necrosis (dogs affected/examined) (beagle dogs [5]; [12]): 0
Tubular cell degeneration (dogs affected/examined) (beagle dogs [5]; [12]): 0
Cardiac conduction system foci (dogs affected/examined) (beagle dogs [5]; [13]): 0
Extramedullary hematopoiesis (dogs affected/examined) (beagle dogs [5]; [13]): 0
Hepatocyte necrosis (dogs affected/examined) (beagle dogs [5]; [13]): 0
Inhibition of erythropoiesis (dogs affected/examined) (beagle dogs [5]; [13]): 0
Neuronal necrosis (dogs affected/examined) (beagle dogs [5]; [13]): 0
Tubular cell degeneration (dogs affected/examined) (beagle dogs [5]; [13]): 1/4
histological examination of sternal bone marrow (beagle dogs [5]; [14]): mild inhibition of erythropoiesis and a decreased count of mature erythrocytes
spleen histology (beagle dogs [5]; [14]): extramedullary hematopoiesis was observed in the spleen
histopathological changes in the kidneys (beagle dogs [5]; vs control groups): tubular epithelium vacuolation and necrosis
heart rate during treatment (beagle dogs [6]): statistically significant decrease
AUC ([7]; week 8, read-out: AUC8w): 580 ± 211 ng·h/mL
AUC ([7]; week four, read-out: AUC4w): 1270 ± 539 ng·h/mL
AUC(0-t) ([7]; read-out: AUC93D): 729 ± 440 ng·h/mL
decline of plasma concentrations [2]: declined much faster after oral administration
